Data: patent US20210206773A1, “DRUG FOR TREATING DISORDERS OF CORNEAL EPITHELIUM” (EA PHARMA CO., LTD., priority 2014, published 2021)

Key:
[1] = test system: HCE cells (human corneal epithelial cells); experiment: Suppressive effect on cell injury under hyperosmotic conditions (MTT method); format: cell-based; settings: 24 hours, hyperosmotic medium with 150 mM NaCl and 160 mM NaCl, or 320 mM glucose, FIG. 1 to FIG. 3
Method: HCE cells (human corneal epithelial cells) were cultured for 24 hours in a hyperosmotic medium containing a compound of Formula (1aa) (hereinafter, Compound (1aa)) (as a hydrate). The medium was adjusted to fulfill the hyperosmotic conditions using 150 mM NaCl and 160 mM NaCl, or 320 mM glucose. The number of live cells was measured by the MTT method, and relative values of light absorbance with respect to the light absorbance of the control (isotonic pressure conditions) were calculated. The value is expressed as average value±S.D. (n=3), **P<0.01.

HCE cells = experiment: Suppressive effect on apoptosis under hyperosmotic conditions (caspase-3-like activity, fluorescent peptide substrate); format: cell-based, human; settings: 160 mM NaCl, 3 hours and 6 hours, FIG. 5
Method: HCE cells were cultured in a hyperosmotic medium containing Compound (1aa) and 160 mM NaCl. After culturing for 3 hours and 6 hours, caspase-3-like activity, which is a marker for apoptosis, was measured using a fluorescent peptide substrate, and the results are presented in FIG. 5. The value is expressed as average value±S.D. (triplicate), **P<0.01, and the term n.s. means “not significant”.

[2] = test system: HCE cells (human corneal epithelial cells); experiment: Suppressive effect on cell injury caused by ethanol (MTT method); format: cell-based; settings: 4 v/v % ethanol, FIG. 4
Method: HCE cells (human corneal epithelial cells) were cultured in a medium containing Compound (1aa) and 4 v/v % ethanol. The number of live cells was measured by the MTT method, and relative values of light absorbance with respect to the light absorbance of the control (absence of ethanol) were calculated. The value is expressed as average value±S.D. (n=3), *P<0.05; and **P<0.01.

dry eye model rat = experiment: Therapeutic effect on corneal surface injury in dry eye model rat (lacrimal glands removed); format: in vivo; settings: 5 μL of aqueous solution 0.05 w/v % (1.5 mM) three times a day, 1 to 5 weeks after removal of lacrimal glands
Method: The lacrimal glands of a rat were removed, and a dry eye model was produced. After 1 to 5 weeks from the removal of lacrimal glands, 5 μL of an aqueous solution containing Compound (1aa) (0.05 w/v %, 1.5 mM) was administered to the rat three times a day. The value is expressed as average value±S.E.M., *P<0.05; and **P<0.01.

[3] = test system: muc1 and muc16 messenger RNAs in HCE cells; experiment: Change in amount of expression of mucin messenger RNA (real time RT-PCR); format: cell-based, human; settings: 3 hours and 24 hours, FIG. 8
Method: HCE cells were cultured in a medium containing Compound (1aa). The amounts of expression of muc1 and muc16 messenger RNAs after culturing for 3 hours and 24 hours were measured by a real time RT-PCR method. Relative values of the amount of expression with respect to the amount of expression of actin messenger RNA were calculated, and the results are presented in FIG. 8. The value is expressed as average value±S.D. (triplicate), *P<0.05; and **P<0.01.

SMILES: O=C1NCC2=C1[C@@H](c1ccccc1)N(C(=O)CO)[C@@H]1CCCC[C@H]1N2 [Compound (1aa), (1R,8R,10R)-9-(2-hydroxyacetyl)-8-phenyl-2,5,9-triazatricyclo[8.4.0.0^3,7]tetradeca-3(7)-en-6-one]
- survival rate of corneal epithelial cells under hyperosmotic conditions (number of live cells, relative light absorbance vs control) [1]: noticeably suppressed the decrease in the survival rate of corneal epithelial cells
- hyperosmotic stress-dependent apoptosis (caspase-3-like activity) (HCE cells): noticeably suppressed hyperosmotic stress-dependent apoptosis
- survival rate of corneal epithelial cells with ethanol (number of live cells, relative light absorbance vs control) [2]: noticeably suppressed the decrease in the survival rate of corneal epithelial cells
- amount of lacrimal fluid (cotton thread test) (dry eye model rat; FIG. 6): increasing the amount of lacrimal fluid
- injury of the corneal surface (fluorescein scores) (dry eye model rat; FIG. 7): suppressed injury of the corneal surface
- amount of expression of mucin (muc1 and muc16 messenger RNAs relative to actin messenger RNA) [3]: increases the amount of expression of mucin
